In PMC9401487 (Clinical Cancer Research, 2021):
“Also recorded” adds a separate entry of the source.

Test system: patients with advanced solid tumors
Test: Phase I safety and tolerability
Assay type: in vivo, human
[1] = Cohort 3 (N=3), 40 mg BID 10 days + carboplatin
[2] = Cohort 3: 40 mg BID days 4–13 (10 days) + carboplatin AUC5, 3 patients
[3] = Cohort 4 (N=3), 40 mg BID 7 days + carboplatin
[4] = Cohort 4: 40 mg BID days 4–10 (7 days) + carboplatin AUC5, 3 patients
[5] = Cohort 5 (N=8), 60 mg QD 7 days + carboplatin

C[C@@H]1COCCN1c1cc(C2([S@](C)(=N)=O)CC2)nc(-c2cc[nH]c3nccc2-3)n1 [ceralasertib]
TEAE Anemia, Grade ≥3 [1]: 0 patients, n (%)
TEAE Any AE, Grade 1–2 [1]: 1 (33) patients, n (%)
TEAE Any AE, Grade ≥3 [1]: 2 (67) patients, n (%)
TEAE Arthralgia, Grade 1–2 [1]: 0 patients, n (%)
TEAE Arthralgia, Grade ≥3 [1]: 0 patients, n (%)
TEAE Aspartate aminotransferase increased, Grade 1–2 [1]: 0 patients, n (%)
TEAE Aspartate aminotransferase increased, Grade ≥3 [1]: 0 patients, n (%)
TEAE Constipation, Grade 1–2 [1]: 1 (33) patients, n (%)
TEAE Constipation, Grade ≥3 [1]: 0 patients, n (%)
TEAE Contusion, Grade 1–2 [1]: 2 (67) patients, n (%)
TEAE Contusion, Grade ≥3 [1]: 0 patients, n (%)
TEAE Cough, Grade 1–2 [1]: 0 patients, n (%)
TEAE Cough, Grade ≥3 [1]: 0 patients, n (%)
TEAE Decreased appetite, Grade 1–2 [1]: 1 (33) patients, n (%)
TEAE Decreased appetite, Grade ≥3 [1]: 0 patients, n (%)
TEAE Diarrhea, Grade 1–2 [1]: 0 patients, n (%)
TEAE Diarrhea, Grade ≥3 [1]: 0 patients, n (%)
TEAE Dizziness, Grade 1–2 [1]: 0 patients, n (%)
TEAE Dizziness, Grade ≥3 [1]: 0 patients, n (%)
TEAE Dyspnea, Grade 1–2 [1]: 0 patients, n (%)
TEAE Dyspnea, Grade ≥3 [1]: 0 patients, n (%)
TEAE Fatigue, Grade 1–2 [1]: 1 (33) patients, n (%)
TEAE Fatigue, Grade ≥3 [1]: 0 patients, n (%)
TEAE Hypocalcemia, Grade 1–2 [1]: 0 patients, n (%)
TEAE Hypocalcemia, Grade ≥3 [1]: 0 patients, n (%)
TEAE Insomnia, Grade 1–2 [1]: 1 (33) patients, n (%)
TEAE Insomnia, Grade ≥3 [1]: 0 patients, n (%)
TEAE Lower respiratory tract infection, Grade 1–2 [1]: 0 patients, n (%)
TEAE Lower respiratory tract infection, Grade ≥3 [1]: 0 patients, n (%)
TEAE Nausea, Grade 1–2 [1]: 0 patients, n (%)
TEAE Nausea, Grade ≥3 [1]: 0 patients, n (%)
TEAE Neutropenia, Grade 1–2 [1]: 1 (33) patients, n (%)
TEAE Neutropenia, Grade ≥3 [1]: 2 (67) patients, n (%)
TEAE Neutrophil count decreased, Grade 1–2 [1]: 0 patients, n (%)
TEAE Neutrophil count decreased, Grade ≥3 [1]: 0 patients, n (%)
TEAE Platelet count decreased, Grade 1–2 [1]: 1 (33) patients, n (%)
TEAE Platelet count decreased, Grade ≥3 [1]: 0 patients, n (%)
TEAE Pyrexia, Grade 1–2 [1]: 0 patients, n (%)
TEAE Pyrexia, Grade ≥3 [1]: 0 patients, n (%)
TEAE Thrombocytopenia, Grade 1–2 [1]: 1 (33) patients, n (%)
TEAE Thrombocytopenia, Grade ≥3 [1]: 2 (67) patients, n (%)
TEAE Upper respiratory tract infection, Grade 1–2 [1]: 0 patients, n (%)
TEAE Upper respiratory tract infection, Grade ≥3 [1]: 0 patients, n (%)
TEAE Vomiting, Grade 1–2 [1]: 0 patients, n (%)
TEAE Vomiting, Grade ≥3 [1]: 0 patients, n (%)
TEAE White blood cell count decreased, Grade 1–2 [1]: 0 patients, n (%)
TEAE White blood cell count decreased, Grade ≥3 [1]: 0 patients, n (%)
Number of DLTs [2]: no DLTs
SRC decision (tolerability) [2]: declared intolerable; also recorded: Not tolerated
TEAE Abdominal pain, Grade 1–2 [3]: 1 (33) patients, n (%)
TEAE Abdominal pain, Grade ≥3 [3]: 0 patients, n (%)
TEAE Alanine aminotransferase increased, Grade 1–2 [3]: 1 (33) patients, n (%)
TEAE Alanine aminotransferase increased, Grade ≥3 [3]: 0 patients, n (%)
TEAE Anemia, Grade 1–2 [3]: 1 (33) patients, n (%)
TEAE Anemia, Grade ≥3 [3]: 1 (33) patients, n (%)
TEAE Any AE, Grade 1–2 [3]: 0 patients, n (%)
TEAE Any AE, Grade ≥3 [3]: 3 (100) patients, n (%)
TEAE Arthralgia, Grade 1–2 [3]: 0 patients, n (%)
TEAE Arthralgia, Grade ≥3 [3]: 0 patients, n (%)
TEAE Aspartate aminotransferase increased, Grade 1–2 [3]: 0 patients, n (%)
TEAE Aspartate aminotransferase increased, Grade ≥3 [3]: 0 patients, n (%)
TEAE Constipation, Grade 1–2 [3]: 1 (33) patients, n (%)
TEAE Constipation, Grade ≥3 [3]: 0 patients, n (%)
TEAE Contusion, Grade 1–2 [3]: 0 patients, n (%)
TEAE Contusion, Grade ≥3 [3]: 0 patients, n (%)
TEAE Cough, Grade 1–2 [3]: 0 patients, n (%)
TEAE Cough, Grade ≥3 [3]: 0 patients, n (%)
TEAE Decreased appetite, Grade 1–2 [3]: 1 (33) patients, n (%)
TEAE Decreased appetite, Grade ≥3 [3]: 0 patients, n (%)
TEAE Diarrhea, Grade 1–2 [3]: 0 patients, n (%)
TEAE Diarrhea, Grade ≥3 [3]: 0 patients, n (%)
TEAE Dizziness, Grade 1–2 [3]: 1 (33) patients, n (%)
TEAE Dizziness, Grade ≥3 [3]: 0 patients, n (%)
TEAE Dyspnea, Grade 1–2 [3]: 0 patients, n (%)
TEAE Dyspnea, Grade ≥3 [3]: 0 patients, n (%)
TEAE Fatigue, Grade 1–2 [3]: 1 (33) patients, n (%)
TEAE Fatigue, Grade ≥3 [3]: 0 patients, n (%)
TEAE Hypocalcemia, Grade 1–2 [3]: 0 patients, n (%)
TEAE Hypocalcemia, Grade ≥3 [3]: 0 patients, n (%)
TEAE Insomnia, Grade 1–2 [3]: 0 patients, n (%)
TEAE Insomnia, Grade ≥3 [3]: 0 patients, n (%)
TEAE Lower respiratory tract infection, Grade 1–2 [3]: 0 patients, n (%)
TEAE Lower respiratory tract infection, Grade ≥3 [3]: 0 patients, n (%)
TEAE Nausea, Grade 1–2 [3]: 2 (67) patients, n (%)
TEAE Nausea, Grade ≥3 [3]: 0 patients, n (%)
TEAE Neutropenia, Grade 1–2 [3]: 1 (33) patients, n (%)
TEAE Neutropenia, Grade ≥3 [3]: 1 (33) patients, n (%)
TEAE Neutrophil count decreased, Grade 1–2 [3]: 0 patients, n (%)
TEAE Neutrophil count decreased, Grade ≥3 [3]: 1 (33) patients, n (%)
TEAE Platelet count decreased, Grade 1–2 [3]: 0 patients, n (%)
TEAE Platelet count decreased, Grade ≥3 [3]: 0 patients, n (%)
TEAE Pyrexia, Grade 1–2 [3]: 1 (33) patients, n (%)
TEAE Pyrexia, Grade ≥3 [3]: 0 patients, n (%)
TEAE Thrombocytopenia, Grade 1–2 [3]: 0 patients, n (%)
TEAE Thrombocytopenia, Grade ≥3 [3]: 3 (100) patients, n (%)
TEAE Upper respiratory tract infection, Grade 1–2 [3]: 0 patients, n (%)
TEAE Upper respiratory tract infection, Grade ≥3 [3]: 0 patients, n (%)
TEAE Vomiting, Grade 1–2 [3]: 0 patients, n (%)
TEAE Vomiting, Grade ≥3 [3]: 0 patients, n (%)
TEAE White blood cell count decreased, Grade 1–2 [3]: 0 patients, n (%)
TEAE White blood cell count decreased, Grade ≥3 [3]: 1 (33) patients, n (%)
Number of DLTs [4]: a DLT of grade 4 thrombocytopenia and grade 3 neutropenia
SRC decision (tolerability) [4]: declared intolerable; also recorded: Not tolerated
TEAE Abdominal pain, Grade 1–2 [5]: 1 (13) patients, n (%)
TEAE Abdominal pain, Grade ≥3 [5]: 0 patients, n (%)
TEAE Alanine aminotransferase increased, Grade 1–2 [5]: 0 patients, n (%)
TEAE Alanine aminotransferase increased, Grade ≥3 [5]: 1 (13) patients, n (%)
TEAE Anemia, Grade 1–2 [5]: 3 (38) patients, n (%)
TEAE Anemia, Grade ≥3 [5]: 3 (38) patients, n (%)
TEAE Any AE, Grade 1–2 [5]: 4 (50) patients, n (%)
TEAE Any AE, Grade ≥3 [5]: 4 (50) patients, n (%)
